# Patent US9686985B2, “Fungicide N-cycloalkyl-N-bicyclicmethylene-carboxamide derivatives” (BAYER INTELLECTUAL PROPERTY GMBH, priority 2012, dated 2017)
# Legend:
# Uromyces appendiculatus = test: Example F: in vivo preventive test on Uromyces appendiculatus (beans); settings: table F, 100 ppm, evaluated 10 days after inoculation
# Experimental: Example F: In Vivo Preventive Test on Uromyces appendiculatus (Beans) [table] To produce a suitable preparation of active compound, 1 part by weight of active compound is mixed with the stated amounts of solvent and emulsifier, and the concentrate is diluted with water to the desired concentration. To test for preventive activity, young plants are sprayed with the preparation of active compound at the stated rate of application. After the spray coating has dried on, the plants are inoculated with an aqueous spore suspension of the causal agent of bean rust (Uromyces appendiculatus) and then remain for 1 day in an incubation cabinet at approximately 20° C. and a relative atmospheric humidity of 100%. The plants are then placed in a greenhouse at approximately 21° C. and a relative atmospheric humidity of approximately 90%.
# Puccinia triticina = test: Example O: in vivo preventive test on Puccinia triticina (wheat); settings: table O, 500 ppm, evaluated 8 days after inoculation
# Experimental: (§1) Example O: In Vivo Preventive Test on Puccinia triticina (Wheat) [table] To produce a suitable preparation of active compound, 1 part by weight of active compound or active compound combination is mixed with the stated amounts of solvent and emulsifier, and the concentrate is diluted with water to the desired concentration. To test for preventive activity, young plants are sprayed with the preparation of active compound or active compound combination at the stated rate of application. After the spray coating has been dried, the plants are sprayed with a spore suspension of Puccinia triticina. The plants remain for 48 hours in an incubation cabinet at approximately 20° C. and a relative atmospheric humidity of approximately 100%. The plants are placed in the greenhouse at a temperature of approximately 20° C. and a relative atmospheric humidity of approximately 80%.
# Botrytis cinerea = test: Example S: in vivo preventive test on Botrytis cinerea (grey mould); settings: table S; 500 ppm; gherkin plants; grading 4 to 5 days after contamination
# Experimental: Example S: In Vivo Preventive Test on Botrytis cinerea (Grey Mould) […] Gherkin plants (“Vert petit de Paris” variety), sown in starter cups on a 50/50 peat soil pozzolana substrate and grown at 24° C., are treated at the Z11 cotyledon stage by spraying with the active ingredient prepared as described above. Plants, used as controls, are treated with the mixture of acetone/tween/DMSO/water not containing the active material. After 24 hours, the plants are contaminated by spraying the cotyledons with an aqueous suspension of cryopreserved Botrytis cinerea spores (50 000 spores per mL). The spores are suspended in a nutrient solution composed of 10 g/L of PDB, 50 g/L of D-Fructose, 2 g/L of NH4NO3 and 1 g/L of KH2PO4. The contaminated gherkin plants are incubated at 17° C. and at 90% relative humidity. Grading (% of efficacy) is carried out 4 to 5 days after the contamination, in comparison with the control plants.
# Sphaerotheca fuliginea [1] = test: Example B: in vivo preventive test on Sphaerotheca fuliginea (powdery mildew on cucurbits); settings: table B; 500 ppm; gherkin plants; grading 12 days after contamination
# Summary of the method: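 Gherkin plants (Vert petit de Paris) sprayed with compound at the Z11 cotyledon stage, then inoculated 24 h later with Sphaerotheca fuliginea spores (100 000 spores per mL). Kept at about 20° C., 70-80% relative humidity; % efficacy versus solvent-treated controls graded 12 days after inoculation.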
# Sphaerotheca fuliginea [2] = test: Example A: in vivo preventive test on Sphaerotheca fuliginea (cucumber)
# Experimental: Example A: In Vivo Preventive Test on Sphaerotheca fuliginea (Cucumber) [table] To produce a suitable preparation of active compound, 1 part by weight of active compound is mixed with the stated amounts of solvent and emulsifier, and the concentrate is diluted with water to the desired concentration. To test for preventive activity, young plants are sprayed with the preparation of active compound at the stated rate of application. One day after this treatment, the plants are inoculated with an aqueous spore suspension of Sphaerotheca fuliginea. Then the plants are placed in a greenhouse at approximately 23° C. and a relative atmospheric humidity of approximately 70%.
# Alternaria solani = test: Example C: in vivo preventive test on Alternaria solani (tomato)
# Experimental: Example C: In Vivo Preventive Test on Alternaria solani (Tomato) [table] To produce a suitable preparation of active compound, 1 part by weight of active compound is mixed with the stated amounts of solvent and emulsifier, and the concentrate is diluted with water to the desired concentration. To test for preventive activity, young plants are sprayed with the preparation of active compound at the stated rate of application. One day after this treatment, the plants are inoculated with an aqueous spore suspension of Alternaria solani. The plants remain for one day in an incubation cabinet at approximately 22° C. and a relative atmospheric humidity of 100%. Then the plants are placed in an incubation cabinet at approximately 20° C. and a relative atmospheric humidity of 96%.
# Septoria tritici = test: Example K: in vivo preventive test on Septoria tritici (wheat); settings: table K, 500 ppm, evaluated 21 days after inoculation
# Experimental: as §1, with “Example K: In Vivo” for “Example O: In Vivo”, “Test on Septoria tritici (Wheat) [table]” for “Test on Puccinia triticina (Wheat) [table]”, “suspension of […] The plants” for “suspension of Puccinia triticina. The plants”, “of approximately 100% and afterwards for 60 hours at approximately 15° C. in a translucent incubation cabinet at a relative atmospheric humidity of approximately 100%. The” for “of approximately 100%. The”, “of approximately 15° C. and” for “of approximately 20° C. and”
# Pyrenophora teres = test: Example N: in vivo preventive test on Pyrenophora teres (barley); settings: table N; 500 ppm; barley plants; grading 14 days after contamination
# Summary of the method: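 Barley (cv. Plaisant) at 1-leaf stage was sprayed with compound, then inoculated 24 h later with P. teres spores (12 000/mL). Plants were held 48 h at 20 °C, 100% RH, then 12 days at 20 °C, 70-80% RH; % efficacy versus solvent-treated controls was graded 14 days post-inoculation.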
# [3] = table A1, 100 ppm of active ingredient, evaluated 7 days after inoculation
# [4] = table A2, dose 100 ppm, comparison with WO-2010/086311 compounds
# [5] = table C1, 100 ppm, evaluated 7 days after inoculation
Compound,Efficacy (Uromyces appendiculatus) [%],Efficacy (Puccinia triticina) [%],Efficacy (Botrytis cinerea) [%],Efficacy (Sphaerotheca fuliginea [1]) [%],Efficacy (Sphaerotheca fuliginea [2]; [3]) [%],Efficacy (Sphaerotheca fuliginea [2]; [4]) [%],Efficacy (Alternaria solani; [5]) [%],Efficacy (Septoria tritici) [%],Efficacy (Pyrenophora teres) [%],"Efficacy (Alternaria solani; table C2, dose 100 ppm, comparison with WO-2010/086311 compound) [%]","Efficacy (Alternaria solani; table C2, dose 100 ppm, comparison with WO-2010/086311 compound, listed as 1.23)"
Cn1nc(C(F)F)c(C(=O)N(CC2CC(C)(C)Oc3ccccc32)C2CC2)c1F (centres unmarked) [I.33],100,100,80,100,94,94,100,100,100,–,–
CC(C1CCCc2ccccc21)N(C(=O)c1c(C(F)F)nn(C)c1F)C1CC1 (centres unmarked) [I.23],96,75,85,100,94,94,90,100,100,90,at least 90%
